Measured values taken from PubChem BioAssay (NCI).
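Five compound concentrations were applied to cells in 96-well plates for 48 hours; endpoints were derived by simple linear interpolation of the resulting dose-response curve. GI50: concentration for 50% inhibition of growth. TGI is the concentration that stops growth completely.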

Legend:
Experiment in all cases: inhibition of tumour cell growth, NCI panel, 48 h
786-0 renal = test system: 786-0 renal
A498 renal = test system: A498 renal
ACHN renal = test system: ACHN renal
CAKI-1 renal = test system: CAKI-1 renal
CCRF-CEM leukemia = test system: CCRF-CEM leukemia
COLO 205 colon = test system: COLO 205 colon
DU-145 prostate = test system: DU-145 prostate
HCC-2998 colon = test system: HCC-2998 colon
HCT-116 colon = test system: HCT-116 colon
HCT-15 colon = test system: HCT-15 colon
HL-60(TB) leukemia = test system: HL-60(TB) leukemia
HOP-62 NSCLC = test system: HOP-62 NSCLC
HOP-92 NSCLC = test system: HOP-92 NSCLC
HS 578T breast = test system: HS 578T breast
HT29 colon = test system: HT29 colon
IGROV1 ovarian = test system: IGROV1 ovarian
K-562 leukemia = test system: K-562 leukemia
LOX IMVI melanoma = test system: LOX IMVI melanoma
MALME-3M melanoma = test system: MALME-3M melanoma
MCF7 breast = test system: MCF7 breast
MDA-MB-231 breast = test system: MDA-MB-231 breast
MDA-MB-435 = test system: MDA-MB-435
MOLT-4 leukemia = test system: MOLT-4 leukemia
NCI-H226 lung = test system: NCI-H226 lung
NCI-H460 lung = test system: NCI-H460 lung
NCI-H522 lung = test system: NCI-H522 lung
NCI/ADR-RES ovarian = test system: NCI/ADR-RES ovarian
OVCAR-3 ovarian = test system: OVCAR-3 ovarian
OVCAR-5 ovarian = test system: OVCAR-5 ovarian
OVCAR-8 ovarian = test system: OVCAR-8 ovarian
PC-3 prostate = test system: PC-3 prostate
RPMI-8226 leukemia = test system: RPMI-8226 leukemia
RXF 393 renal = test system: RXF 393 renal
SF-268 CNS = test system: SF-268 CNS
SF-295 CNS = test system: SF-295 CNS
SF-539 CNS = test system: SF-539 CNS
SK-MEL-2 melanoma = test system: SK-MEL-2 melanoma
SK-MEL-28 melanoma = test system: SK-MEL-28 melanoma
SK-MEL-5 melanoma = test system: SK-MEL-5 melanoma
SN12C renal = test system: SN12C renal
SNB-19 CNS = test system: SNB-19 CNS
SNB-75 CNS = test system: SNB-75 CNS
SR leukemia = test system: SR leukemia
SW-620 colon = test system: SW-620 colon
T-47D breast = test system: T-47D breast
U251 CNS = test system: U251 CNS
UACC-62 melanoma = test system: UACC-62 melanoma
UO-31 renal = test system: UO-31 renal
BT-549 breast = test system: BT-549 breast
SK-OV-3 ovarian = test system: SK-OV-3 ovarian
TK-10 renal = test system: TK-10 renal

For Cc1nc2ccccc2c(/C=C/c2ccc(Cl)cc2)c1C(=O)/C=C/c1ccc(F)cc1, the GI50 (786-0 renal) was 1780 nM, the TGI (786-0 renal) was 3480 nM and the GI50 (A498 renal) was 1790 nM. The TGI (A498 renal) was 3220 nM, the GI50 (ACHN renal) was 1510 nM and the TGI (ACHN renal) was 2830 nM. It also gave a GI50 (CAKI-1 renal) of 1110 nM, a TGI (CAKI-1 renal) of 2310 nM and a GI50 (CCRF-CEM leukemia) of 1260 nM. The TGI (CCRF-CEM leukemia) was > 100000 nM, the GI50 (COLO 205 colon) was 2080 nM and the TGI (COLO 205 colon) was 4910 nM. For the same compound, the GI50 (DU-145 prostate) was 1680 nM, the TGI (DU-145 prostate) was 3650 nM and the GI50 (HCC-2998 colon) was 1530 nM. The TGI (HCC-2998 colon) was 3010 nM, the GI50 (HCT-116 colon) was 531 nM and the TGI (HCT-116 colon) was 2140 nM. The GI50 (HCT-15 colon) was 1060 nM, the TGI (HCT-15 colon) was 2910 nM and the GI50 (HL-60(TB) leukemia) was 1570 nM. The TGI (HL-60(TB) leukemia) was 4130 nM, the GI50 (HOP-62 NSCLC) was 1890 nM and the TGI (HOP-62 NSCLC) was 3710 nM. The GI50 (HOP-92 NSCLC) was 1190 nM, the TGI (HOP-92 NSCLC) was 2890 nM and the GI50 (HS 578T breast) was 2170 nM. It also gave a TGI (HS 578T breast) of 5940 nM, a GI50 (HT29 colon) of 1210 nM and a TGI (HT29 colon) of 7540 nM. For the same compound, the GI50 (IGROV1 ovarian) was 1150 nM, the TGI (IGROV1 ovarian) was 2690 nM and the GI50 (K-562 leukemia) was 1200 nM. The TGI (K-562 leukemia) was > 100000 nM, the GI50 (LOX IMVI melanoma) was 1320 nM and the TGI (LOX IMVI melanoma) was 2610 nM. For the same compound, the GI50 (MALME-3M melanoma) was 1640 nM, the TGI (MALME-3M melanoma) was 3010 nM and the GI50 (MCF7 breast) was 781 nM. For the same compound, the TGI (MCF7 breast) was 4320 nM, the GI50 (MDA-MB-231 breast) was 1920 nM and the TGI (MDA-MB-231 breast) was 4770 nM. The GI50 (MDA-MB-435) was 1550 nM, the TGI (MDA-MB-435) was 3210 nM and the GI50 (MOLT-4 leukemia) was 1190 nM. The TGI (MOLT-4 leukemia) was 7200 nM, the GI50 (NCI-H226 lung) was 1680 nM and the TGI (NCI-H226 lung) was 3570 nM. For the same compound, the GI50 (NCI-H460 lung) was 1390 nM, the TGI (NCI-H460 lung) was 2850 nM and the GI50 (NCI-H522 lung) was 1440 nM. For the same compound, the TGI (NCI-H522 lung) was 4040 nM, the GI50 (NCI/ADR-RES ovarian) was 1850 nM and the TGI (NCI/ADR-RES ovarian) was 4110 nM. The GI50 (OVCAR-3 ovarian) was 1460 nM, the TGI (OVCAR-3 ovarian) was 2800 nM and the GI50 (OVCAR-5 ovarian) was 1630 nM. It also gave a TGI (OVCAR-5 ovarian) of 3490 nM, a GI50 (OVCAR-8 ovarian) of 1620 nM and a TGI (OVCAR-8 ovarian) of 4160 nM. The GI50 (PC-3 prostate) was 1600 nM, the TGI (PC-3 prostate) was 3710 nM and the GI50 (RPMI-8226 leukemia) was 1370 nM. The TGI (RPMI-8226 leukemia) was 4480 nM, the GI50 (RXF 393 renal) was 1660 nM and the TGI (RXF 393 renal) was 3160 nM. For the same compound, the GI50 (SF-268 CNS) was 1520 nM, the TGI (SF-268 CNS) was 3040 nM and the GI50 (SF-295 CNS) was 1750 nM. The TGI (SF-295 CNS) was 3220 nM, the GI50 (SF-539 CNS) was 1760 nM and the TGI (SF-539 CNS) was 3250 nM. It also gave a GI50 (SK-MEL-2 melanoma) of 1870 nM, a TGI (SK-MEL-2 melanoma) of 3790 nM and a GI50 (SK-MEL-28 melanoma) of 1810 nM. For the same compound, the TGI (SK-MEL-28 melanoma) was 3350 nM, the GI50 (SK-MEL-5 melanoma) was 1620 nM and the TGI (SK-MEL-5 melanoma) was 2970 nM. For the same compound, the GI50 (SN12C renal) was 1810 nM, the TGI (SN12C renal) was 4070 nM and the GI50 (SNB-19 CNS) was 1540 nM. It also gave a TGI (SNB-19 CNS) of 2890 nM, a GI50 (SNB-75 CNS) of 1160 nM and a TGI (SNB-75 CNS) of 2370 nM. It also gave a GI50 (SR leukemia) of 704 nM, a TGI (SR leukemia) of 5470 nM and a GI50 (SW-620 colon) of 1420 nM. For the same compound, the TGI (SW-620 colon) was 3430 nM, the GI50 (T-47D breast) was 1100 nM and the TGI (T-47D breast) was 2860 nM. For the same compound, the GI50 (U251 CNS) was 1440 nM, the TGI (U251 CNS) was 2920 nM and the GI50 (UACC-62 melanoma) was 1490 nM. The TGI (UACC-62 melanoma) was 2910 nM, the GI50 (UO-31 renal) was 1150 nM and the TGI (UO-31 renal) was 2360 nM.

For N=C1S/C(=C/c2ccc(-c3ccc4c(c3)C(=O)NC4=O)o2)C(=O)N1c1ccc(Br)cc1, the GI50 (786-0 renal) was 3450 nM, the TGI (786-0 renal) was > 100000 nM and the GI50 (BT-549 breast) was 4310 nM. For the same compound, the TGI (BT-549 breast) was 56000 nM, the GI50 (COLO 205 colon) was > 100000 nM and the TGI (COLO 205 colon) was > 100000 nM. The GI50 (HCC-2998 colon) was > 100000 nM, the TGI (HCC-2998 colon) was > 100000 nM and the GI50 (HCT-116 colon) was 3650 nM. For the same compound, the TGI (HCT-116 colon) was > 100000 nM, the GI50 (HL-60(TB) leukemia) was > 100000 nM and the TGI (HL-60(TB) leukemia) was > 100000 nM. It also gave a GI50 (HOP-92 NSCLC) of 1810 nM, a TGI (HOP-92 NSCLC) of 8560 nM and a GI50 (HS 578T breast) of 7500 nM. The TGI (HS 578T breast) was > 100000 nM, the GI50 (IGROV1 ovarian) was 15900 nM and the TGI (IGROV1 ovarian) was > 100000 nM. The GI50 (MCF7 breast) was 3680 nM, the TGI (MCF7 breast) was > 100000 nM and the GI50 (MDA-MB-231 breast) was 4210 nM. For the same compound, the TGI (MDA-MB-231 breast) was > 100000 nM, the GI50 (MOLT-4 leukemia) was > 100000 nM and the TGI (MOLT-4 leukemia) was > 100000 nM. The GI50 (NCI-H522 lung) was 3630 nM, the TGI (NCI-H522 lung) was > 100000 nM and the GI50 (NCI/ADR-RES ovarian) was > 100000 nM. The TGI (NCI/ADR-RES ovarian) was > 100000 nM, the GI50 (OVCAR-5 ovarian) was > 100000 nM and the TGI (OVCAR-5 ovarian) was > 100000 nM. The GI50 (RPMI-8226 leukemia) was 4200 nM, the TGI (RPMI-8226 leukemia) was > 100000 nM and the GI50 (SF-268 CNS) was 6300 nM. The TGI (SF-268 CNS) was > 100000 nM, the GI50 (SF-295 CNS) was 2960 nM and the TGI (SF-295 CNS) was 8950 nM. The GI50 (SF-539 CNS) was > 100000 nM, the TGI (SF-539 CNS) was > 100000 nM and the GI50 (SK-MEL-2 melanoma) was 11700 nM. For the same compound, the TGI (SK-MEL-2 melanoma) was 41800 nM, the GI50 (SK-MEL-5 melanoma) was 3480 nM and the TGI (SK-MEL-5 melanoma) was > 100000 nM. The GI50 (SK-OV-3 ovarian) was 6190 nM, the TGI (SK-OV-3 ovarian) was > 100000 nM and the GI50 (SNB-19 CNS) was > 100000 nM. The TGI (SNB-19 CNS) was > 100000 nM, the GI50 (SNB-75 CNS) was 2170 nM and the TGI (SNB-75 CNS) was 6760 nM. For the same compound, the GI50 (T-47D breast) was 2920 nM, the TGI (T-47D breast) was > 100000 nM and the GI50 (TK-10 renal) was 3320 nM. The TGI (TK-10 renal) was > 100000 nM, the GI50 (U251 CNS) was 2910 nM and the TGI (U251 CNS) was 8230 nM. The GI50 (UO-31 renal) was > 100000 nM and the TGI (UO-31 renal) was > 100000 nM.
